From ChEMBL document CHEMBL4359816, “Discovery and Optimization of Quinolinone Derivatives as Potent, Selective, and Orally Bioavailable Mutant Isocitrate Dehydrogenase 1 (mIDH1) Inhibitors” (J Med Chem, 2019)
Values after ≈ are worked out from the molar mass of the structure shown. One block for each compound: values may come before it.

What was measured:
[1] = fAUC (infinity) in dog at 0.5 mg/kg, iv; format: ADME, organism-based, Canis lupus familiaris; conditions: in vivo
[2] = Protein binding in human plasma; format: ADME, cell-free; conditions: read-out: PPB (converted)
[3] = Half-life in human hepatocytes; format: ADME, cell-based, Hepatocyte
[4] = target: Isocitrate dehydrogenase [NADP] cytoplasmic (Homo sapiens, UniProt O75874, R132G); assay: Inhibition of human Myc-DDK-tagged IDH1 R132G mutant expressed in human U87MG cells assessed as reduction in 2-HG levels after 24 hrs by RapidFire high-throughput mass spectrometry assay; format: cell-based
[5] = Clearance in rat at 1 mg/kg, iv or 5 mg/kg, po; format: ADME, organism-based; conditions: in vivo
[6] = Octanol/aqueous buffer partition coefficient, log D of the compound at pH 7.4; format: physicochemical
[7] = Total AUC (infinity) in dog at 0.5 mg/kg, iv; format: ADME, organism-based, Canis lupus familiaris; parameters: dose 0.5 mg/kg, time AUCmax, route intravenous; conditions: in vivo
[8] = Cmax in rat at 1 mg/kg, iv or 5 mg/kg, po; format: ADME, organism-based; conditions: in vivo
[9] = Protein binding in dog plasma; format: ADME, cell-free, Canis lupus familiaris; conditions: read-out: PPB (converted)
[10] = Clearance in mouse at 1 mg/kg, iv or 5 mg/kg, po; format: ADME, organism-based; conditions: in vivo
[11] = Intrinsic clearance in human hepatocytes; format: ADME, cell-based, Hepatocyte; conditions: read-out: CLH
[12] = Apparent permeability of the compound across basolateral side to apical side in human Caco2 cells; format: ADME, cell-based; conditions: Caco-2
[13] = Protein binding in rat plasma; format: ADME, cell-free; conditions: read-out: PPB (converted)
[14] = Half-life in mouse at 1 mg/kg, iv or 5 mg/kg, po; format: ADME, organism-based; conditions: in vivo
[15] = target: T1, Isocitrate dehydrogenase [NADP] cytoplasmic (Homo sapiens, UniProt O75874, R132C); assay: Inhibition of IDH1 R132C mutant in human HCT116 cells assessed as reduction in 2-HG levels after 24 hrs by RapidFire high-throughput mass spectrometry assay; format: cell-based
[16] = Protein binding in mouse plasma; format: ADME, cell-free; conditions: read-out: PPB (converted)
[17] = fAUC (infinity) in mouse at 1 mg/kg, iv or 5 mg/kg, po; format: ADME, organism-based; conditions: in vivo
[18] = Half-life in dog at 0.5 mg/kg, iv; format: ADME, organism-based, Canis lupus familiaris; conditions: in vivo
[19] = target: T1, Isocitrate dehydrogenase [NADP] cytoplasmic; assay: Inhibition of human Myc-DDK-tagged IDH1 R132C mutant expressed in human U87MG cells assessed as reduction in 2-HG levels after 24 hrs by RapidFire high-throughput mass spectrometry assay; format: cell-based
[20] = Metabolic stability in human liver microsomes assessed as compound remaining after 30 mins; format: ADME, Microsome; conditions: read-out: Stability
[21] = Total Cmax in mouse at 1 mg/kg, iv or 5 mg/kg, po; format: ADME, organism-based; conditions: in vivo
[22] = Total AUC (infinity) in rat at 1 mg/kg, iv or 5 mg/kg, po; format: ADME, organism-based; conditions: in vivo
[23] = Clearance in dog at 0.5 mg/kg, iv; format: ADME, organism-based, Canis lupus familiaris; conditions: in vivo
[24] = Kinetic solubility of the compound; format: physicochemical; conditions: read-out: Kinetic_solubility
[25] = Oral bioavailability in rat at 5 mg/kg; format: ADME, organism-based; conditions: in vivo
[26] = Apparent permeability of the compound across apical side to basolateral side in human Caco2 cells; format: ADME, cell-based; conditions: Caco-2
[27] = target: Isocitrate dehydrogenase [NADP] cytoplasmic (Homo sapiens, UniProt O75874, R132S); assay: Inhibition of human Myc-DDK-tagged IDH1 R132S mutant expressed in human U87MG cells assessed as reduction in 2-HG levels after 24 hrs by RapidFire high-throughput mass spectrometry assay; format: cell-based
[28] = fAUC (infinity) in rat at 1 mg/kg, iv or 5 mg/kg, po; format: ADME, organism-based; conditions: in vivo
[29] = Efflux ratio of apparent permeability from basolateral side to apical side over apical side to basolateral side in human Caco2 cells; format: ADME, cell-based; conditions: Caco-2
[30] = target: Isocitrate dehydrogenase [NADP] cytoplasmic (Homo sapiens, UniProt O75874, R132L); assay: Inhibition of human Myc-DDK-tagged IDH1 R132L mutant expressed in human U87MG cells assessed as reduction in 2-HG levels after 24 hrs by RapidFire high-throughput mass spectrometry assay; format: cell-based
[31] = Metabolic stability in rat liver microsomes assessed as compound remaining after 30 mins; format: ADME, Microsome; conditions: read-out: Stability
[32] = Half-life in rat at 1 mg/kg, iv or 5 mg/kg, po; format: ADME, organism-based; conditions: in vivo
[33] = Oral bioavailability in mouse at 5 mg/kg; format: ADME, organism-based; conditions: in vivo
[34] = Permeability of the compound by PAMPA; format: ADME; conditions: read-out: permeability
[35] = target: T1, Isocitrate dehydrogenase [NADP] cytoplasmic; assay: Inhibition of human Myc-DDK-tagged IDH1 R132C mutant assessed as reduction in NADPH consumption pre-incubated for 15 mins followed by alpha-ketoglutarate substrate and NADPH addition after 45 mins by diaphorase and resazurin dye based assay
[36] = Total AUC (infinity) in mouse at 1 mg/kg, iv or 5 mg/kg, po; format: ADME, organism-based; conditions: in vivo
MDR1 (P-gp) = assay: Efflux ratio of apparent permeability from basolateral side to apical side over apical side to basolateral side in MDCK cells harboring MDR1 (unknown origin) at 10 uM incubated for 2 hrs by LC-MS/MS analysis; format: ADME, cell-based, Canis lupus familiaris; conditions: dog
[37] = Total Cmax in BALB/c mouse at 5 mg/kg, po after 1 hr; format: ADME, organism-based; parameters: dose 5 mg/kg, route oral; conditions: in vivo
[38] = AUC (0 to 8 hrs) in BALB/c mouse at 5 mg/kg, po measured up to 24 hrs; format: ADME, organism-based; parameters: dose 5 mg/kg, time < 8 hr, route oral; conditions: in vivo
[39] = Half-life in BALB/c mouse at 5 mg/kg, po measured up to 24 hrs; format: ADME, organism-based; conditions: in vivo
[40] = target: Isocitrate dehydrogenase [NADP] cytoplasmic (Homo sapiens, UniProt O75874); assay: Inhibition of wild-type IDH1 (unknown origin) by NADPH fluorescence based assay
[41] = Metabolic stability in mouse liver microsomes assessed as compound remaining after 30 mins; format: ADME, Microsome; conditions: read-out: Stability
[42] = Total plasma concentration in BALB/c mouse at 5 mg/kg, po at 4 hrs; format: ADME, organism-based
Homo sapiens = organism: Homo sapiens; format: cell-based

T1 sequence (O75874 2-414 R132C limits assumed): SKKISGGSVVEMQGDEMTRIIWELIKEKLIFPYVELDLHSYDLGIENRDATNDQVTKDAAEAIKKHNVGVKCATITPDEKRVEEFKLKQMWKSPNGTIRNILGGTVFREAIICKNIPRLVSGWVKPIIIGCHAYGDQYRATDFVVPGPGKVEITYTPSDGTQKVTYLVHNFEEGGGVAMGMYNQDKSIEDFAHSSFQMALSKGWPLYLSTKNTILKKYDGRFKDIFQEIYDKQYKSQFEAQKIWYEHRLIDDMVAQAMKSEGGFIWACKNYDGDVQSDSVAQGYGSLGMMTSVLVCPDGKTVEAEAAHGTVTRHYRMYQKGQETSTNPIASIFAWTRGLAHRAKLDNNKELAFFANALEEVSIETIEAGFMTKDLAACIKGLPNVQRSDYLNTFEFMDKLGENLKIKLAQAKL
Chain of Isocitrate dehydrogenase [NADP] cytoplasmic (Homo sapiens, UniProt O75874) (O75874 whole entry): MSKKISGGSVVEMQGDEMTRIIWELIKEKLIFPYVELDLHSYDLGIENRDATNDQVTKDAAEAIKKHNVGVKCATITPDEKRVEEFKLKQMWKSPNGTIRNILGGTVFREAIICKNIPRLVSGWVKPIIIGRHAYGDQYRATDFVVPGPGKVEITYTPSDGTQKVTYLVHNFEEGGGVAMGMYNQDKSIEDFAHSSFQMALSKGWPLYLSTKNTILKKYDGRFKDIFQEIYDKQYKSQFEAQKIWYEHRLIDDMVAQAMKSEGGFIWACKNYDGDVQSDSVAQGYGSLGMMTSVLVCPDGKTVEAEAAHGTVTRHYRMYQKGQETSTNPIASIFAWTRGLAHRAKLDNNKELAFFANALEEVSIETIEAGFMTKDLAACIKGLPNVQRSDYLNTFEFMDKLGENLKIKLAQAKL
Chain of Isocitrate dehydrogenase [NADP] cytoplasmic (Homo sapiens, UniProt O75874, R132G) (O75874 2-414 R132G limits assumed): as the sequence (O75874 2-414 R132C limits assumed) above, with C131G counted along it
Chain of Isocitrate dehydrogenase [NADP] cytoplasmic (Homo sapiens, UniProt O75874, R132S) (O75874 2-414 R132S limits assumed): as the sequence (O75874 2-414 R132C limits assumed) above, with C131S counted along it
Chain of Isocitrate dehydrogenase [NADP] cytoplasmic (Homo sapiens, UniProt O75874, R132L) (O75874 2-414 R132L limits assumed): as the sequence (O75874 2-414 R132C limits assumed) above, with C131L counted along it

- fAUC [1]: 0.132 µM·h
- fraction unbound [2]: 0.0144
- half-life [3]: 3.07 h
- IC50 [4]: 3 nM
- clearance [5]: 16.4 mL/min/kg
- logD [6]: 2.74
- AUC(0-inf) [7]: 5.8 µM·h
- Cmax [8]: 1900 nM
- fraction unbound [9]: 0.0228
- clearance [10]: 8.5 mL/min/kg
- CLint scaled [11]: 19.1 mL/min/kg
- Papp B→A [12]: 9.47 ×10⁻⁶ cm/s
- fraction unbound [13]: 0.0045
- half-life [14]: 3.5 h
- IC50 [15]: 40 nM
- fraction unbound [16]: 0.0083
- fAUC [17]: 0.178 µM·h
- half-life [18]: 6.2 h
- IC50 [19]: 4 nM
- remaining at 0.5 h [20]: 97%
- Cmax [21]: 5200 nM
- AUC(0-inf) [22]: 10.7 µM·h
- clearance [23]: 4.3 mL/min/kg
- solubility kinetic [24]: 5.7 µM (≈ 2.2 µg/mL)
- bioavailability [25]: 75%
- Papp A→B [26]: 5.73 ×10⁻⁶ cm/s
- IC50 [27]: 129 nM
- fAUC [28]: 0.043 µM·h
- efflux ratio [29]: 1.65
- IC50 [30]: 5 nM
- remaining at 0.5 h [31]: 88%
- half-life [32]: 2.6 h
- bioavailability [33]: 85%
- Papp [34]: 12.7 ×10⁻⁶ cm/s
- IC50 [35]: 36 nM
- AUC(0-inf) [36]: 21.5 µM·h
SMILES: COc1cc2[nH]c(=O)c([C@H](C)Nc3ncc(C#N)c(OC)n3)cc2cc1Cl

- efflux ratio at 2 h, 10 µM (MDR1 (P-gp)): > 350
SMILES: N#Cc1ccnc(N2C(=O)CC[C@H]2C(=O)N(c2cncc(F)c2)[C@H](C(=O)NC2CC(F)(F)C2)c2ccccc2Cl)c1 [IVOSIDENIB]

- Cmax [37]: 480 nM
- AUC(0-t) at 8 h [38]: 2.66 µM·h
- IC50 [15]: 3210 nM
- half-life [39]: 3.57 h
- IC50 [40]: 75000 nM
- IC50 [19]: 258 nM
- remaining at 0.5 h [20]: 84%
- solubility kinetic [24]: 0.64 µM (≈ 0.208 µg/mL)
- remaining at 0.5 h [41]: 69%
- IC50 [35]: 820 nM
SMILES: Cc1nc(NCc2cc3cc(Cl)ccc3[nH]c2=O)ccc1C#N

- Cmax [37]: 1060 nM
- AUC(0-t) at 8 h [38]: 2.45 µM·h
- concentration at 4 h [42]: 100 nM
- IC50 [15]: 1920 nM
- half-life [39]: 1.27 h
- IC50 [40]: 100000 nM
- IC50 [19]: 1250 nM
- remaining at 0.5 h [20]: 81%
- solubility kinetic [24]: 0.43 µM (≈ 0.146 µg/mL)
- remaining at 0.5 h [41]: 42%
- IC50 [35]: 2250 nM
SMILES: COc1cc(NCc2cc3cc(Cl)ccc3[nH]c2=O)ccc1C#N
- Ratio IC50 (Homo sapiens): 4
